Where a name gives a salt, the structure may show the parent alone.
Each compound was assayed against T1, TNKS2 (Homo sapiens, UniProt Q9H2K2) (assay: TNKS2 Assay B (auto-parsylation, [3H]-NAD+ SPA)). Settings: 6 nM TNKS2, auto-parsylation, over night at room temperature.
T1 construct: purchased BPS Bioscience, San Diego, USA 80572 (TNKS2 Histone Ribosylation Assay Kit)
T1 sequence (Q9H2K2 1-1166): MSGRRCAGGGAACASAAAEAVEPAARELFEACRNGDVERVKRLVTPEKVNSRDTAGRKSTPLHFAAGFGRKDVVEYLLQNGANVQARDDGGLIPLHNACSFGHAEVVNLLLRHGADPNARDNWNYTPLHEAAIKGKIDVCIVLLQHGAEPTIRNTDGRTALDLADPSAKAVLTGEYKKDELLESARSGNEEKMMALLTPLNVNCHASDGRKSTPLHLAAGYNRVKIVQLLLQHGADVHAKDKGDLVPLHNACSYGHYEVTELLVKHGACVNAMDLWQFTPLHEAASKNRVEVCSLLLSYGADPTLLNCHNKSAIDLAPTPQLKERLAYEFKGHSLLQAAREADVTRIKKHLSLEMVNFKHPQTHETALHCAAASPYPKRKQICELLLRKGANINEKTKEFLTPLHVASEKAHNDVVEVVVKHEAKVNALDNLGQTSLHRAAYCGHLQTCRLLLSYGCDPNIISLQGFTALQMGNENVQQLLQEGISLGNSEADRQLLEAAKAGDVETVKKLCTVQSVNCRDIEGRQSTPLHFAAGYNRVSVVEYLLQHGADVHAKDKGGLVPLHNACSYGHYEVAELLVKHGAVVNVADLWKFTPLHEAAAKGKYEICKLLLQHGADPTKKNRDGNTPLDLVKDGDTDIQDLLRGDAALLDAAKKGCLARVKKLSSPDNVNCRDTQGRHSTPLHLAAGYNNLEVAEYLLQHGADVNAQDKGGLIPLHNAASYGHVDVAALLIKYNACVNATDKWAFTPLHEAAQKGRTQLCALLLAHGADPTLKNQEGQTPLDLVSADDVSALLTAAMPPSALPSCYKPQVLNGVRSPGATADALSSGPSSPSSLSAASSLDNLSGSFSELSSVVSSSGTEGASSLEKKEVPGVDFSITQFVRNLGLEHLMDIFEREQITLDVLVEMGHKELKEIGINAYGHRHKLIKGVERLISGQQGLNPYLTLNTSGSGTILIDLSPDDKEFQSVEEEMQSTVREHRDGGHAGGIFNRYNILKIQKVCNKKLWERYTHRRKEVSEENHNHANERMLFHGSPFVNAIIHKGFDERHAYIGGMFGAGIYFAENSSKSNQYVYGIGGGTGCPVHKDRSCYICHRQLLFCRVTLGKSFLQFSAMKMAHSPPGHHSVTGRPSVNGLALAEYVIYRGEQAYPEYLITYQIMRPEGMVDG
Type: biochemical

| SMILES | IC50 [nM] |
| --- | --- |
| CNC(=O)c1[nH]cnc1C(=O)N[C@H]1CC[C@@](C)(C(=O)Nc2ccc(F)cc2Cl)CC1 [Example 181, N^4-{cis-4-[(2-chloro-4-fluorophenyl)carbamoyl]-4-methylcyclohexyl}-N^5-methyl-1H-imidazole-4,5-dicarboxamide] | > 10000 |
| CC(C)NC(=O)c1nc[nH]c1C(=O)N[C@H]1CC[C@H](C(=O)Nc2ccc(F)cc2Cl)CC1 [Example 20, N^5-{trans-4-[(2-chloro-4-fluorophenyl)carbamoyl]cyclohexyl}-N^4-isopropyl-1H-imidazole-4,5-dicarboxamide] | 130 |
| CNC(=O)c1nc[nH]c1C(=O)N[C@H]1CC[C@H](C(=O)Nc2cc(C(C)(C)O)ccc2Cl)CC1 [Example 170, N^5-(trans-4-{[2-chloro-5-(2-hydroxypropan-2-yl)phenyl]carbamoyl}cyclohexyl)-N^4-methyl-1H-imidazole-4,5-dicarboxamide] | 1500 |
| O=C(NCC(F)(F)F)c1nc[nH]c1C(=O)N[C@H]1CC[C@@]2(CCN(c3cccc(Cl)c3)C2=O)CC1 [Example 281, N^5-[(trans)-2-(3-chlorophenyl)-1-oxo-2-azaspiro[4.5]dec-8-yl]-N^4-(2,2,2-trifluoroethyl)-1H-imidazole-4,5-dicarboxamide] | 280 |
| O=C(NC1CC1)c1nc[nH]c1C(=O)N[C@H]1CC[C@@]2(CCN(c3cccc(Cl)c3)C2=O)CC1 [Example 279, N^5-[(trans)-2-(3-chlorophenyl)-1-oxo-2-azaspiro[4.5]dec-8-yl]-N^4-cyclopropyl-1H-imidazole-4,5-dicarboxamide] | 170 |
| Cc1cc(C)n2ncc(C(=O)N[C@H]3CC[C@@]4(CCN(c5ccc(F)cc5)C4=O)CC3)c2n1 [Example 211, N-[(trans)-2-(4-fluorophenyl)-1-oxo-2-azaspiro[4.5]dec-8-yl]-5,7-di methyl pyrazolo[1,5-a]pyrimidine-3-carboxamide] | 74 |
| CNC(=O)c1nc[nH]c1C(=O)N[C@H]1CC[C@H](C(=O)Nc2ccncc2Cl)CC1 [Example 11, N^5-{trans-4-[(3-chloropyridin-4-yl)carbamoyl]cyclohexyl}-N^4-methyl-1H-imidazole-4,5-dicarboxamide] | 210 |
| CCNC(=O)c1[nH]cnc1C(=O)N[C@H]1CC[C@@]2(CCN(c3ccc(F)cc3)C2=O)CC1 [Example 213, N^5-ethyl-N^4-[(trans)-2-(4-fluorophenyl)-1-oxo-2-azaspiro[4.5]dec-8-yl]-1H-imidazole-4,5-dicarboxamide] | 220 |
| CN(C)C(=O)c1nc[nH]c1C(=O)N[C@H]1CC[C@H](C(=O)Nc2ccc(F)cc2Cl)CC1 [Example 16, N^5-{trans-4-[(2-chloro-4-fluorophenyl)carbamoyl]cyclohexyl}-N^4,N^4-dimethyl-1H-imidazole-4,5-dicarboxamide] | 1200 |
| CNC(=O)c1[nH]cnc1C(=O)N[C@H]1CC[C@@]2(CCN(c3ccc(F)cc3)C2=O)CC1 [Example 212, N^4-[(trans)-2-(4-fluorophenyl)-1-oxo-2-azaspiro[4.5]dec-8-yl]-N^5-methyl-1H-imidazole-4,5-dicarboxamide] | 290 |
| O=C(N[C@H]1CC[C@H](C(=O)Nc2ccc(F)cc2Cl)CC1)c1cnn2ccccc12 [Example 205, N-{trans-4-[(2-chloro-4-fluorophenyl)carbamoyl]cyclohexyl}pyrazolo[1,5-a]pyridine-3-carboxamide] | 2500 |
| CC1CN(C(=O)c2nc[nH]c2C(=O)N[C@H]2CC[C@@]3(CCN(c4ccc(F)cc4Cl)C3=O)CC2)CCS(=O)(=O)C1 (stereo partly drawn) [Example 183, N-[(trans)-2-(2-chloro-4-fluorophenyl)-1-oxo-2-azaspiro[4.5]dec-8-yl]-4-[(6-methyl-1,1-dioxido-1,4-thiazepan-4-yl)carbonyl]-1H-imidazole-5-carboxamide] | 400 |
| O=C(N[C@H]1CC[C@H](C(=O)Nc2ccc(F)cc2Cl)CC1)c1[nH]cnc1C(=O)N1CC2(COC2)C1 [Example 14, N-{trans-4-[(2-chloro-4-fluorophenyl)carbamoyl]cyclohexyl}-4-(2-oxa-6-azaspiro[3.3]hept-6-ylcarbonyl)-1H-imidazole-5-carboxamide] | 37 |
| C[C@]1(C(=O)Nc2ccc(F)cc2Cl)CC[C@@H](NC(=O)c2cnn3cccnc23)CC1 [Example 180, N-{cis-4-[(2-chloro-4-fluorophenyl)carbamoyl]-4-methylcyclohexyl}pyrazolo[1,5-a]pyrimidine-3-carboxamide] | > 10000 |

Stronger by IC50, values ahead:

| IC50 [nM] | SMILES |
| --- | --- |
| 14 | Cc1cc(C)n2ncc(C(=O)N[C@H]3CC[C@H](C(=O)Nc4cnccc4Cl)CC3)c2n1 [Example 169, N-{trans-4-[(4-chloropyridin-3-yl)carbamoyl]cyclohexyl}-5,7-dimethylpyrazolo[1,5-a]pyrimidine-3-carboxamide] |
| 7.2 | CC1CCN(CCNC(=O)c2nc[nH]c2C(=O)N[C@H]2CC[C@H](C(=O)Nc3ccc(F)cc3Cl)CC2)CC1 [Example 12, N^5-{trans-4-[(2-chloro-4-fluorophenyl)carbamoyl]cyclohexyl}-N^4-[2-(4-methylpiperidin-1-yl)ethyl]-1H-imidazole-4,5-dicarboxamide] |
| 6.3 | COCCNC(=O)c1nc[nH]c1C(=O)N[C@H]1CC[C@@]2(CCN(c3ccccc3Cl)C2=O)CC1 [Example 259, N^5-[(trans)-2-(2-chlorophenyl)-1-oxo-2-azaspiro[4.5]dec-8-yl]-N^4-(2-methoxyethyl)-1H-imidazole-4,5-dicarboxamide] |
| 5.3 | O=C(N[C@H]1CC[C@@]2(CCN(c3ccc(F)cc3Cl)C2=O)CC1)c1cnn2cc(CCO)cnc12 [Example 214, N-[(trans)-2-(2-chloro-4-fluorophenyl)-1-oxo-2-azaspiro[4.5]dec-8-yl]-6-(2-hydroxyethyl)pyrazolo[1,5-a]pyrimidine-3-carboxamide] |
| 3.8 | Cc1ccn2ncc(C(=O)N[C@H]3CC[C@@]4(CCN(c5ccc(F)cc5Cl)C4=O)CC3)c2n1 [Example 221, N-[(trans)-2-(2-chloro-4-fluorophenyl)-1-oxo-2-azaspiro[4.5]dec-8-yl]-5-methylpyrazolo[1,5-a]pyrimidine-3-carboxamide] |
| 3.3 | O=C(N[C@H]1CC[C@@]2(CCN(c3ccc(F)cc3Cl)C2=O)CC1)c1cnn2ccc(N3CCNCC3)nc12 [Example 226, N-[(trans)-2-(2-chloro-4-fluorophenyl)-1-oxo-2-azaspiro[4.5]dec-8-yl]-5-(piperazin-1-yl)pyrazolo[1,5-a]pyrimidine-3-carboxamide hydrochloric acid salt] |
| 3.1 | CC(C)NC(=O)c1nc[nH]c1C(=O)N[C@H]1CC[C@@]2(CCN(c3cc(F)c(F)cc3Cl)C2=O)CC1 [Example 198, N^5-[(trans)-2-(2-chloro-4,5-difluorophenyl)-1-oxo-2-azaspiro[4.5]dec-8-yl]-N^4-(propan-2-yl)-1H-imidazole-4,5-dicarboxamide] |
| 3.1 | O=C(NC1CCC2(CC1)CCN(c1cc(F)c(F)cc1Cl)C2=O)c1cnn2cccnc12 (single isomer, unassigned; isomer 1) [Example 168, N-[2-(2-chloro-4,5-difluorophenyl)-1-oxo-2-azaspiro[4.5]dec-8-yl]pyrazolo[1,5-a]pyrimidine-3-carboxamide (isomer 1)] |
| 3 | O=C(NC1CC1)c1nc[nH]c1C(=O)N[C@H]1CC[C@@]2(CCN(c3cc(F)c(F)cc3Cl)C2=O)CC1 [Example 199, N^5-[(trans)-2-(2-chloro-4,5-difluorophenyl)-1-oxo-2-azaspiro[4.5]dec-8-yl]-N^4-cyclopropyl-1H-imidazole-4,5-dicarboxamide] |
| 2.2 | O=C(NCC(F)(F)F)c1nc[nH]c1C(=O)N[C@H]1CC[C@@]2(CCN(c3cc(F)c(F)cc3Cl)C2=O)CC1 [Example 201, N^5-[(trans)-2-(2-chloro-4,5-difluorophenyl)-1-oxo-2-azaspiro[4.5]dec-8-yl]-N^4-(2,2,2-trifluoroethyl)-1H-imidazole-4,5-dicarboxamide] |
| 1.7 | CC1CCN(CCNC(=O)c2nc[nH]c2C(=O)N[C@H]2CC[C@@]3(CCN(c4ccccc4Cl)C3=O)CC2)CC1 [Example 260, N^5-[(trans)-2-(2-chlorophenyl)-1-oxo-2-azaspiro[4.5]dec-8-yl]-N^4-[2-(4-methylpiperidin-1-yl)ethyl]-1H-imidazole-4,5-dicarboxamide] |

Source: US20180148418A1, “AMIDO-SUBSTITUTED CYCLOHEXANE DERIVATIVES” (Bayer Pharma Aktiengesellschaft, priority 2015, published 2018)
